Here are results for 1 compound from paper PMC11933534, “Favipiravir induces HuNoV viral mutagenesis and infectivity loss with clinical improvement in immunocompromised patients” (Clinical Immunology (Orlando, Fla.), 2024).

Holding throughout (assay type): in vivo
Data set [1] deals with IRF-1. The experiment in a line: Innate immune gene expression in HuNoV-infected zebrafish larvae: IRF-1. Conditions: tizoxanide 4 ng; HuNoV GII.4 Sydney[P16]; day 2 pi; p = 0.023. The method, then:
(§1) To generate the cDNA, the ImProm-II Reverse Transcription System (Promega, Madison, WI, USA) was used. Briefly, a total of 1 μg (ca. 8 μL) of extracted RNA was added to 2 μL of random hexamers and incubated at 70 °C for 5 min, followed by 5 min at 4 °C. To this reaction mix a total volume of 30 μL containing 8 μL of Improm II 5× reaction buffer, 6 mM MgCl2, 0.5 mM deoxynucleoside triphosphate, 40 units of RNase inhibitor, 2 μL of Improm II reverse transcriptase, followed by an incubation at 25 °C for 5 min, 37 °C for 1 h, and 72 °C for 15 min. A qPCR was performed with 4 μL template cDNA using the SsoAdvanced Universal SYBR green supermix, 600 nM of forward and reverse primers for IRF-1, Mx and the housekeeping genes 18 s, β-actin, and ef1a. Primer sequences were as previously described [[65], [66], [67], [68]]. Cycling conditions were as follows; polymerase activation at 95 °C for 3 min followed by 40 cycles of denaturation at 95 °C for 15 s, annealing at 55 °C and extension at 72 °C for 30 s (Quantstudio 5, ThermoFisher Scientific, Waltham, MA, USA). Data was normalized to the housekeeping genes and compared to DMSO-injected zebrafish larvae infected with HuNoV to determine the fold induction of the expression, according to the Livak method.

In data set [2] the test system is Mx. The experiment in a line: Innate immune gene expression in HuNoV-infected zebrafish larvae: Mx. As to conditions: tizoxanide 4 ng; HuNoV GII.4 Sydney[P16]; day 2 pi; p = 0.0403. The method, then:
as §1

Data set [3] has as its system zebrafish larvae. The experiment in a line: Toxicity analysis in zebrafish larvae. How it is done: (§2) First, compounds were dissolved in 100% DMSO (spectroscopy grade). To determine the correct dose for pericardial injections in zebrafish larvae of all compounds (i.e. favipiravir, tizoxanide and their 1:1 combination), a weight-dependent conversion was applied. For this purpose, the optimized and increased clinical dose of 400 mg favipiravir TDS and 200 mg tizoxanide BD was used. To ensure the weight-converted dose was not toxic for zebrafish larvae of 3 days post fertilization, a toxicity analysis was performed. […] The following parameters were investigated: touch response, morphology, posture, oedema, signs of necrosis, swim bladder and heartbeat.

Data set [4] concerns HuNoV GII.4 Sydney[P16]. Kind of data set: Antiviral treatment of HuNoV-infected zebrafish larvae (viral RNA by RT-qPCR). How it is done:
as §2
Zebrafish larvae were anesthetized and positioned as described previously, in short: zebrafish larvae of 3 days post fertilization were anesthetized and transferred to an agarose mold to position them on their dorsal side with the yolk facing upward. In every experiment, the injection needle was calibrated to ensure the precision of the injection volume. Microinjection was performed using an M3301R Manual Micromanipulator (WPI, Friedberg, Germany) and a FemtoJet 4i pressure microinjector (Eppendorf, Hamburg, Germany). Compound-treated zebrafish larvae received a 1 nL (1.5 nL in case of the combination treatment) injection of compound in the pericardial cavity, while negative control zebrafish were injected with an equal volume of DMSO. Subsequently, the zebrafish larvae received an injection of 3 nL virus in the yolk. After both injections, zebrafish larvae were transferred to 6-well plates with Danieau's solution and further maintained in an incubator with a 14/10 h light/dark cycle at 32 °C.
Zebrafish larvae were homogenized (Precellys 24, Bertin Technologies, Montigny-le-Bretonneux, France), the homogenates were cleared by centrifugation (5 min, 9000 g), and RNA was extracted using the Direct-zol RNA kit (Zymo Research, Irvine, CA, USA), according to the manufacturer's protocol. RNA levels were quantified with a one-step RT-qPCR (iTaq Universal Probes One-Step Kit, Bio-Rad, Hercules, CA, USA) as previously described.
(Real-time PCR tracks product formation cycle by cycle.)

Where only a bound is given, the exact number is not on record here.

For the compound `O=C(Nc1ncc([N+](=O)[O-])s1)c1ccccc1O` [tizoxanide], in data set [1], the “Fold increase in IRF-1 expression vs untreated (DMSO) infected larvae” value is given as 4 fold. The “Fold increase in Mx expression vs untreated (DMSO) infected larvae” value in data set [2] amounted to 9 fold. Also, the “Toxicity in the zebrafish larval model” value in data set [3] (25 ng favipiravir or 4 ng tizoxanide, drug administered alone) was “did not show toxicity”; in data set [3] (tizoxanide 6 ng) it was “signs of toxicity, including heart oedema, necrosis and spine curvature”. Besides, the “Reduction of HuNoV replication” value in data set [4] (monotherapy favipiravir 25 ng or tizoxanide 4 ng, in-house GII.4 Sydney[P16] stool sample, peak 2 dpi, p = 0.0006 and 0.001) was over 1 log10. In data set [4] (tizoxanide 4 ng alone, inoculum SS A, p > 0.05), the “Effect on HuNoV replication” value is “no significant effect”.
